Common to all, as to format: cell-based
The target of assay [1] is T1, Endothelin-1 receptor (Homo sapiens, UniProt P25101).
T1 sequence (P25101 whole entry): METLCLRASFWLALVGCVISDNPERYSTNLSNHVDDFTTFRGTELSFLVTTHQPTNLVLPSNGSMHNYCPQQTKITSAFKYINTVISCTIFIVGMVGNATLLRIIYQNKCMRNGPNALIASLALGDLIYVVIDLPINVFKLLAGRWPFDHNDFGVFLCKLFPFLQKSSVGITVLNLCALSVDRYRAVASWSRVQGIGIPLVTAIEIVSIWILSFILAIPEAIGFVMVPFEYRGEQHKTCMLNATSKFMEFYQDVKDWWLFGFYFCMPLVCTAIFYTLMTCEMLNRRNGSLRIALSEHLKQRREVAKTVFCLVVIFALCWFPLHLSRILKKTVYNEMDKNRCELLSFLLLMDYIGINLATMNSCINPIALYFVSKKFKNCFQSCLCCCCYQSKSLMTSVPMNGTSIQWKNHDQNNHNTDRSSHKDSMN
The assay can be described thus: Displacement of [125I]endothelin-1 from human recombinant ETA receptor expressed in CHO cells.

Assay [2] deals with T2, Endothelin-1 receptor (Rattus norvegicus, UniProt P26684).
T2 sequence (P26684 whole entry): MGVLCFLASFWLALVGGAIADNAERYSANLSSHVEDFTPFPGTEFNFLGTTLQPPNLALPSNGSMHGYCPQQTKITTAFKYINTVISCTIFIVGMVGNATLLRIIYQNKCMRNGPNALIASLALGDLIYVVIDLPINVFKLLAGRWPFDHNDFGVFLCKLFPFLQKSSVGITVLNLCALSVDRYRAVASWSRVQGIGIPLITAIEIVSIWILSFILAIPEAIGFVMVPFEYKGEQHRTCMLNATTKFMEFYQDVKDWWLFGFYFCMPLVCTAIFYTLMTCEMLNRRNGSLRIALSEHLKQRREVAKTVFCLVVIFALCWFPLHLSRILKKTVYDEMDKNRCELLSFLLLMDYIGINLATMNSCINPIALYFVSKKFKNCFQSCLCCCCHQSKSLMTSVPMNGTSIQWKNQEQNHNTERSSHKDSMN
The assay can be described thus: Displacement of [125I]endothelin-1 from ETA receptor in rat A10 cells by scintillation counting. On the technique in general: Loss of bound radioactivity is the signal in a displacement assay; it reports binding, not function.

The target of assay [3] is T3, Endothelin receptor type B (Homo sapiens, UniProt P24530).
T3 sequence (P24530 whole entry): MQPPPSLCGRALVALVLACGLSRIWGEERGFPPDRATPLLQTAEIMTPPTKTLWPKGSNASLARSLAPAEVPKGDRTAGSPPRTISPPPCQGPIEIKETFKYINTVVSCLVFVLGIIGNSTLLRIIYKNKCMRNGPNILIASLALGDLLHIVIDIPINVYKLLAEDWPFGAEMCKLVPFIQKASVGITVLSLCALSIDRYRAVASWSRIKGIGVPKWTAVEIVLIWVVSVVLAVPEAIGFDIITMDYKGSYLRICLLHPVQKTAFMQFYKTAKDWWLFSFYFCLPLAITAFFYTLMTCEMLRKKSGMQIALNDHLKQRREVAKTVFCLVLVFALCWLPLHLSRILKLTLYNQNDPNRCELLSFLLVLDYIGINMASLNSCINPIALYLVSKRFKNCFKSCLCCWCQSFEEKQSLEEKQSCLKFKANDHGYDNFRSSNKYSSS
The assay can be described thus: Displacement of [125I]endothelin-1 from human recombinant ETB receptor expressed in CHO cells.

The target in assay [4] is T4, Endothelin-1 receptor (Homo sapiens) (UniProt P25101).
T4 sequence (whole entry): T1 sequence (P25101 whole entry)
The assay can be described thus: Activity at human recombinant ETA receptor expressed in CHO cells assessed as inhibition of endothelin-1-induced increase in extracellular acidification rate at 20 uM by microphysiometry.

Assay [5] deals with T4, Endothelin-1 receptor (Homo sapiens). Briefly: Activity at human recombinant ETA receptor expressed in CHO cells assessed as inhibition of endothelin-1-induced increase in extracellular acidification rate at 100 uM by microphysiometry.
Assay [6] addresses T5, Endothelin receptor type B (Homo sapiens) (UniProt P24530).
T5 sequence (whole entry): T3 sequence (P24530 whole entry)
Briefly: Activity at human recombinant ETB receptor expressed in CHO cells assessed as inhibition of endothelin-1-induced increase in extracellular acidification rate at 100 uM by microphysiometry.

Assay [7] addresses T5, Endothelin receptor type B (Homo sapiens). The assay can be described thus: Activity at human recombinant ETB receptor expressed in CHO cells assessed as inhibition of endothelin-1-induced increase in extracellular acidification rate at 20 uM by microphysiometry.

Each structure is given as a SMILES string. Active and inactive are the calls of the source. The rule behind the calls is not given here.

On to `COc1cc(C)c(OC)c2c1C[C@@H](C(=O)O)C[C@H]2c1ccccc1`, for which, in assay [1], the IC50 (as a rule, the concentration needed to halve the response being measured) was determined as 160 µM.

With `COC[C@@H]1Cc2cc3c(c(OC)c2[C@H](c2ccc(OC)c(OC)c2)[C@H]1COC)OCO3` [NIRTETRALIN], the IC50 in assay [2] was 400 µM; in assay [1], 75 µM; in assay [3], more than 500 µM.

`COC[C@@H]1Cc2cc(OC)c3c(c2[C@H](c2ccc(OC)c(OC)c2)[C@H]1COC)OCO3` [HYPOPHYLLANTHIN]: the IC50 in assay [2] was 580 µM; in assay [1], 40 µM; in assay [3] it was more than 500 µM. Also, the inhibition (commonly the share of the control response that was lost under treatment) in assay [4] came out at 28%; in assay [5], 39%. The result in assay [6] and in assay [7] was inactive.

`COC[C@H](Cc1ccc(OC)c(OC)c1)[C@H](COC)Cc1ccc(OC)c(OC)c1` [PHYLLANTHIN]: the IC50 was more than 1000 µM in assay [2], more than 1000 µM in assay [1] and more than 500 µM in assay [3].

(Values after ChEMBL document CHEMBL1150078, “A Novel Class of Non-Peptidic Endothelin Antagonists Isolated from the Medicinal Herb Phyllanthus niruri” (J Nat Prod, 1995).)
